Assay results as given in patent US12427134B2, “Methods of reducing the risk of cardiovascular events in a subject with atrial fibrillation and/or atrial flutter” (priority 2019, dated 2025).
Where “and” joins values, the source holds several entries; their conditions need not be identical. Identical values can stand only once.

Test system: hypertriglyceridemic patients with cardiovascular disease or at high risk for cardiovascular disease
Experiment: REDUCE-IT: time to first occurrence of adjudicated cardiovascular endpoint events (primary, key secondary, other secondary, tertiary; sensitivity and landmark analyses)
Format: in vivo
Settings: for New Onset Hypertension, patients with event: non-adjudicated
Excerpt: The following study, also referred to as the REDUCE-IT clinical trial, was a large cardiovascular (CV) outcome trial designed to assess CV risk reduction benefit of AMR101 treatment (commercially known as VASCEPA®) versus placebo on the 5-point primary composite endpoint: CV death, non-fatal stroke, non-fatal myocardial infarction (MI), coronary revascularizations, or unstable angina requiring hospitalization.
A multi-center, prospective, randomized, double-blind, placebo-controlled, parallel-group study was performed to evaluate the effect of AMR101 (4 g per day) on cardiovascular health and mortality in hypertriglyceridemic patients with cardiovascular disease or at high risk for cardiovascular disease. The intended expanded indication of the study was treatment with AMR101 as an add-on to statin therapy to reduce the risk of cardiovascular events in patients with clinical cardiovascular disease or with multiple risk factors for cardiovascular disease.
The primary objective of this study was, in patients at LDL-C goal while on statin therapy, with established cardiovascular disease (CVD) or at high risk for CVD, and hypertriglyceridemia (e.g., fasting triglycerides (TG) ≥200 mg/dL and <500 mg/dL), to evaluate the effect of AMR101 4 g daily on time from randomization to first occurrence of any component of the composite of the following major CV events: CV death; nonfatal MI; (including silent MI; electrocardiograms (ECGs) were performed annually for the detection of silent MIs); nonfatal stroke; coronary revascularization; and unstable angina determined to be caused by myocardial ischemia by invasive/non-invasive testing and requiring emergent hospitalization.
The key secondary objective of this study was to evaluate the effect of AMR101 4 g daily on the time from randomization to the first occurrence of the composite of following major CV events: CV death, nonfatal MI (including silent MI), and nonfatal stroke.
Other secondary objectives for this study were to evaluate the effect of therapy on time from randomization to the first occurrence of the following individual or composite endpoints: composite of CV death or nonfatal MI (including silent MI); fatal or nonfatal MI (including silent MI); non-elective coronary revascularization represented as the composite of emergent or urgent classifications; CV death; unstable angina determined to be caused by myocardial ischemia by invasive/non-invasive testing and requiring emergent hospitalization; fatal or nonfatal stroke; composite of total mortality, nonfatal MI (including silent MI), or nonfatal stroke; and total mortality.
The key tertiary objectives for this study were to evaluate the effect of AMR101 4 g daily from baseline and percent change from baseline in fasting triglycerides and LDL-C. […]

[1] = ITT population, 4 g daily, N = 4089
[2] = ITT population, listed as Icosapent Ethyl

With `CC/C=C\C/C=C\C/C=C\C/C=C\C/C=C\CCCC(=O)OCC` [AMR101, eicosapentaenoic acid ethyl ester] the “Key secondary endpoint, HR” value (2-year landmark, ITT population) was 0.831, the “Fatal or nonfatal MI, relative risk reduction” value (4 g per day) was 31% and the “Fatal or nonfatal stroke, relative risk reduction” value (4 g per day) was 28%. For the same compound, the “Hospitalization for unstable angina, relative risk reduction” value (4 g per day) was 32%, the “Total mortality, nonfatal MI, or nonfatal stroke, relative risk reduction” value (4 g per day) was 23% and the “Total mortality, relative risk reduction” value (4 g per day) was 13%. For the same compound, the “Urgent or emergent revascularization, relative risk reduction” value (4 g per day) was 35%, the “Non-CV deaths, patients” value (CEC-adjudicated) was 2.4% and the “Total mortality, patients” value (CEC-adjudicated deaths) was 6.7%. The “Component contributing to key secondary endpoint (first event): CV Death” value (ITT population) was 149 (3.6) n (%), the “Component contributing to key secondary endpoint (first event): Nonfatal MI” value (ITT population) was 230 (5.6) n (%) and the “Component contributing to key secondary endpoint (first event): Nonfatal Stroke” value (ITT population) was 80 (2.0) n (%). The “Component contributing to primary endpoint (first event): CV Death” value (ITT population) was 137 (3.4) n (%), the “Component contributing to primary endpoint (first event): Coronary Revascularization” value (ITT population) was 189 (4.6) n (%) and the “Component contributing to primary endpoint (first event): Hospitalization for Unstable Angina” value (ITT population) was 94 (2.3) n (%). For the same compound, the “Component contributing to primary endpoint (first event): Nonfatal MI” value (ITT population) was 205 (5.0) n (%), the “Component contributing to primary endpoint (first event): Nonfatal Stroke” value (ITT population) was 80 (2.0) n (%) and the “Composite: CV Death, Nonfatal MI, Non-Elective Coronary Revascularization, Unstable Angina, Nonfatal Stroke, or PVD Requiring Intervention” value (ITT population) was 683 (16.7) n (%). The “Composite: CV Death, Nonfatal MI, Non-Elective Coronary Revascularization, Unstable Angina, Nonfatal Stroke, or PVD Requiring Intervention, HR (95% CI)” value (ITT population) was 0.77 (0.70-0.86), the “Composite: CV Death, Nonfatal MI, Non-Elective Coronary Revascularization, Unstable Angina, PVD Requiring Intervention, or Cardiac Arrhythmia” value (ITT population) was 741 (18.1) n (%) and the “Composite: CV Death, Nonfatal MI, Non-Elective Coronary Revascularization, Unstable Angina, PVD Requiring Intervention, or Cardiac Arrhythmia, HR (95% CI)” value (ITT population) was 0.86 (0.78-0.94). For the same compound, the “Composite: CV Death, Nonfatal MI, Non-Elective Coronary Revascularization, or Unstable Angina” value (ITT population) was 513 (12.5) n (%), the “Composite: CV Death, Nonfatal MI, Non-Elective Coronary Revascularization, or Unstable Angina, HR (95% CI)” value (ITT population) was 0.76 (0.68-0.85) and the “Composite: CV Death, Nonfatal MI, Nonfatal Stroke, Cardiac Arrhythmia, or Cardiac Arrest” value (ITT population) was 589 (14.4) n (%). The “Composite: CV Death, Nonfatal MI, Nonfatal Stroke, Cardiac Arrhythmia, or Cardiac Arrest, HR (95% CI)” value (ITT population) was 0.82 (0.73-0.91), the “Coronary Revascularization (all), HR (95% CI)” value (ITT population) was 0.66 and the “Coronary Revascularization (all), patients with event” value (ITT population) was 9.2%. For the same compound, the “Fatal or nonfatal MI (including silent MI), patients with event” value (ITT population) was 6.1%, the “Fatal or nonfatal MI, HR” value (ITT population) was 0.688 and the “Fatal or nonfatal stroke, HR” value (ITT population) was 0.720. The “Fatal or nonfatal stroke, patients with event” value (ITT population) was 2.4%, the “Hospitalization for unstable angina, HR” value (ITT population) was 0.679 and the “Hospitalization for unstable angina, patients with event” value (ITT population) was 2.6%. For the same compound, the “Key secondary endpoint in patients with impaired glucose metabolism at baseline, HR” value (ITT population) was 0.829, the “Key secondary endpoint in patients with impaired glucose metabolism at baseline, patients with event” value (ITT population) was 11.3% and the “New Heart Failure (newly emergent CHF), HR (95% CI)” value (ITT population) was 0.95. The “New Heart Failure (newly emergent CHF), patients with event” value (ITT population) was 4.1%, the “New Onset Hypertension, HR (95% CI)” value (ITT population) was 0.86 and the “Non-elective (emergent or urgent) coronary revascularization, HR” value (ITT population) was 0.653. For the same compound, the “Peripheral Artery Disease, HR (95% CI)” value (ITT population) was 0.97, the “Peripheral Artery Disease, patients with event” value (ITT population) was 3.8% and the “Primary endpoint in patients with diabetes at baseline, HR (95% CI)” value (ITT population) was 0.769 (0.677-0.873). The “Primary endpoint in patients with diabetes at baseline, patients with event” value (ITT population) was “(18.1%)”, the “Primary endpoint in patients with impaired glucose metabolism at baseline, HR (95% CI)” value (ITT population) was 0.795 (0.675-0.937) and the “Primary endpoint in patients with metabolic syndrome at baseline, HR (95% CI)” value (ITT population) was 0.744 (0.671-0.824). For the same compound, the “Silent MI, patients with event” value (ITT population) was 0.7%, the “Sudden Cardiac Death, HR (95% CI)” value (ITT population) was 0.69 and the “Total Mortality or Newly Emergent CHF” value (ITT population) was 393 (9.6) n (%). The “Total Mortality or Newly Emergent CHF, HR (95% CI)” value (ITT population) was 0.90 (0.78-1.03), the “Total mortality, HR” value (ITT population) was 0.87 and the “Total mortality, nonfatal MI, or nonfatal stroke, HR” value (ITT population) was 0.772. For the same compound, the “Key secondary composite endpoint (CV death, nonfatal MI, nonfatal stroke), patients with event” value [1] was 459 (11.2%) n (%) and 459 (11.2) n (%), the “Primary composite endpoint (CV death, nonfatal MI, nonfatal stroke, coronary revascularization, hospitalization for unstable angina), patients with event” value [1] was 705 (17.2%) n (%) and 705 (17.2) n (%) and the “New Onset Hypertension, patients with event” value (ITT population) was 0.3%. For the same compound, the “New Onset Hypertension, patients with event” value [2] was “(0.3) %”, the “Amputation for PVD, patients with event” value [2] was “(0.5%)” and the “Cardiac Arrest, HR (95% CI)” value [2] was 0.52 (0.31, 0.86). For the same compound, the “Cardiac Arrest, patients with event” value [2] was “(0.5%)”, the “Coronary Revascularization (all), HR (95% CI)” value [2] was 0.66 (0.58, 0.76) and the “Coronary Revascularization (all), patients with event” value [2] was “(9.2%)”. The “Elective Revascularization, HR (95% CI)” value [2] was 0.68 (0.57, 0.82), the “Elective Revascularization, patients with event” value [2] was “(4.7%)” and the “Emergent Revascularization, HR (95% CI)” value [2] was 0.62 (0.42, 0.92). The “Emergent Revascularization, patients with event” value [2] was “(1.0%)”, the “Ischemic Stroke, HR (95% CI)” value [2] was 0.64 (0.49, 0.85) and the “Ischemic Stroke, patients with event” value [2] was “(2.0%)”.
